Entries after “also recorded” stand apart in the source; their conditions may differ. Non-standard residues stand in square brackets, D forms with d. Residues, ends and D or L forms follow the SMILES beside them. Sar = CNCC(=O)O
How the values were obtained:
AT1R [1] = target: T1, AT1R (Homo sapiens, UniProt P30556); assay: Activation of βarr2 by human AT1R in vitro by AngII peptide analogs (FIGS. 1B-C); type: cell-based; conditions: for EC50: in vitro
T1 sequence (P30556 1-359): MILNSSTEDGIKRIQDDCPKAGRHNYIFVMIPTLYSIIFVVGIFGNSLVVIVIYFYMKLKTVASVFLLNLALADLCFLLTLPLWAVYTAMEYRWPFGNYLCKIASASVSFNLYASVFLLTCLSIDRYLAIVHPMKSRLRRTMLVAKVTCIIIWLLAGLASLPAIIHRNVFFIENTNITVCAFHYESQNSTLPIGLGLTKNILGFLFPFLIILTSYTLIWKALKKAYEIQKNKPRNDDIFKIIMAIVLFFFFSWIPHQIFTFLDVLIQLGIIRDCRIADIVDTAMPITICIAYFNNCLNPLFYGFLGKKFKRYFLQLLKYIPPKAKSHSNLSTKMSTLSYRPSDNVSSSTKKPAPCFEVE

[2] = system: adrenal βarr1-overexpressing post-MI rats; assay: Plasma aldosterone in adrenal βarr1-overexpressing post-MI rats treated with sartans and CORET; type: in vivo, rat; conditions: 3-week post-MI rats, 7 days post Adβarr1 adrenal gene transfer, 7-day treatment
Experimental: (§1) In vivo studies: For the in vivo studies, post-MI rats overexpressing Purl in their adrenals received 7-day-long treatments with the agents of interest.
(§2) Aldosterone measurements: Plasma aldosterone and in vitro aldosterone secretion in the supernatant of cultured H295R cells were determined by ELISA with the Aldosterone EIA kit from ALPCO Diagnostics, Salem, N.H. (Lymperopoulos A. et al. Proc. Natl. Acad. Sci. USA 106:5825-5830 2009). In vivo adrenal gene deliveries: Adrenal-specific in vivo gene delivery in rats was performed as previously described in Lymperopoulos A. et al. Proc. Natl. Acad. Sci. USA 106:5825-5830 2009). Echocardiographic and hemodynamic measurements: Two-dimensional guided M-mode and Doppler echocardiography and closed chest cardiac catheterization were performed as described in Lymperopoulos, A. et al. Nat. Med. 13:315-323 2007. Statistical analysis: Data are presented as mean±SEM. One- or two-way ANOVA with Bonferroni test was used for analysis of numeric parameters and differences were considered significant at p<0.05. Experimental Results
Statistical analysis: p<0.05, vs. Saline, n=6 rats/group.

[3] = system: adrenal βarr1-overexpressing post-MI rats; assay: Echocardiography (ejection fraction) of adrenal βarr1-overexpressing post-MI rats treated with sartans and CORET; type: in vivo, rat; conditions: for ejection fraction (EF %) vs. Saline, in words: 3-week post-MI rats, 7 days post Adβarr1 gene transfer and concomitant treatment; for cardiac ejection fraction (EF): adrenal βarr1-overexpressing post-MI rats, 7-day treatment, saline-treated 35±0.3%
Experimental: as §1, §2
(§3) Statistical analysis: p<0.05, vs. Saline, ^, p<0.05, vs. CORET (SEQ ID NO:4) or IRB, n=6 rats/group.

[4] = system: adrenal βarr1-overexpressing post-MI rats; assay: In vivo hemodynamic analysis (cardiac contractility) of adrenal βarr1-overexpressing post-MI rats treated with sartans and CORET; design: species or system rat; conditions: vs. Saline
Experimental: as §1, §2, §3

AT1R [5] = target: T1, AT1R; assay: Inhibition of SII-induced activation of βarr2 by human AT1R in vitro (FIG. 1A); conditions: % normalized signal
AT1R [6] = target: T1, AT1R; assay: Biased antagonism of sartans for AT1R-stimulated βarr vs. G-protein-mediated signaling (FIG. 6); conditions: both IC50 in nM; <1 biased for βarr antagonism, >1 biased towards G-protein antagonism
Text: This ranking was derived from the ratios of individual IC50 for AT1R-βarr antagonism to IC50 for G-protein antagonism (both in nM) for each sartan.

post-MI rats [7] = assay: Plasma aldosterone (EIA) after adrenal gene delivery in post-MI rats; type: in vivo, rat
Experimental: In vivo adrenal gene delivery in post-myocardial infarction (MI) rats: All animal procedures and experiments were performed in accordance with the guidelines of the IACUC committees of Thomas Jefferson and Nova Southeastern Universities. MI was performed using a known cryo-infarct method (Lymperopoulos, A. et al. Nat. Med. 13:315-323 2007). Adrenal-specific in vivo gene delivery was done essentially as described in Lymperopoulos, A. et al. (Mol. Ther. 16:302-307 2008) via direct delivery of adenovirus in the adrenal gland. […] Construction and purification of adenovirus: Recombinant adenovirus that encode full length wild-type βarr1 (Adβarr1; SEQ ID NO:1) or a rat βarr1 C-terminal fragment (Adβarr-1ct) (SEQ ID NO:3, amino acid residues 369-418 of the C-terminal of rat βarr-1 (SEQ ID NO:2); see FIG. 7A) were constructed as described in Lymperopoulos A. et al. Proc. Nati. Acad. Sci. USA 106:5825-5830 2009 and Lymperopoulos, A. et al. Nat. Med. 13:315-323 2007. […] The black box highlights the clathrin- and AP-2 adaptin-binding domains, which are necessary for the receptor internalizing and signaling functions of βarr1 (Ferguson, S. S. Pharmacol Rev 53:1-24 2001) Transgenes were cloned into shuttle vector pAdTrack-CMV, which harbors a CMV-driven green fluorescent protein (GFP), to form the viral constructs by using standard cloning protocols. As control adenovirus, empty vector which expressed only GFP (AdGFP) was used. The resultant adenovirus were purified using two sequential rounds of CsCl density gradient ultracentrifugation as described in Lymperopoulos A. et al. Proc. Natl. Acad. Sci. USA 106:5825-5830 2009 and Lymperopoulos, A. et al. Nat. Med. 13:315-323 2007. Plasma aldosterone measurements: Rat plasma aldosterone levels were determined by EIA (Aldosterone EIA Kit, ALPCO Diagnostics, Salem, N.H., USA) as described in Lymperopoulos A. et al. Proc. Natl. Acad. Sci. USA 106:5825-5830 2009 and Mihailidou et al. Hypertension 40:124-129 2002. Echocardiographic and hemodynamic measurements: Two-dimensional guided M-mode and Doppler echocardiography using a 14-Mhz transducer (Vevo 770 Echograph, VisualSonic Inc., Toronto, Ontario, Canada) and closed chest cardiac catheterization were performed in rats as described in Lymperopoulos, A. et al. Nat. Med. 13:315-323 2007 and Rengo, G. et al. Circulation 119:89-98 2009. Three independent echocardiographic measurements were taken in both modes. […]

post-MI rats [8] = assay: Echocardiographic parameters after adrenal gene delivery in post-MI rats; type: in vivo, rat; conditions: Adβarr1 post-MI rats
Experimental: (§4) In vivo adrenal gene delivery in post-myocardial infarction (MI) rats: All animal procedures and experiments were performed in accordance with the guidelines of the IACUC committees of Thomas Jefferson and Nova Southeastern Universities. MI was performed using a known cryo-infarct method (Lymperopoulos, A. et al. Nat. Med. 13:315-323 2007). Adrenal-specific in vivo gene delivery was done essentially as described in Lymperopoulos, A. et al. (Mol. Ther. 16:302-307 2008) via direct delivery of adenovirus in the adrenal gland. […] Construction and purification of adenovirus: Recombinant adenovirus that encode full length wild-type βarr1 (Adβarr1; SEQ ID NO:1) or a rat βarr1 C-terminal fragment (Adβarr-1ct) (SEQ ID NO:3, amino acid residues 369-418 of the C-terminal of rat βarr-1 (SEQ ID NO:2); see FIG. 7A) were constructed as described in Lymperopoulos A. et al. Proc. Nati. Acad. Sci. USA 106:5825-5830 2009 and Lymperopoulos, A. et al. Nat. Med. 13:315-323 2007. […] Plasma aldosterone measurements: Rat plasma aldosterone levels were determined by EIA (Aldosterone EIA Kit, ALPCO Diagnostics, Salem, N.H., USA) as described in Lymperopoulos A. et al. Proc. Natl. Acad. Sci. USA 106:5825-5830 2009 and Mihailidou et al. Hypertension 40:124-129 2002. […]

post-MI rat hearts = assay: Masson-trichrome staining for cardiac fibrosis in post-MI rats; type: in vivo; conditions: 7 days concomitant drug vs. vehicle (saline)
Experimental: as §4

H295R cells = assay: In vitro βarr1-dependent SII-induced aldosterone secretion in H295R cells (ELISA); type: cell-based, human; conditions: H295R cells transfected with Adβarr1, stimulated with 1 mM SII, standard doses of agents; p<0.05 vs. SII
Experimental: as §2
Of note, when endogenous Purl is inhibited, no effects by drugs and peptides on SII-induced aldosterone secretion are seen (data not shown), as expected, since SII is a “biased” βarr-only agonist (Luttrell, L. M. et al. Pharmacol. Rev. 62:305-330 2010; Rajagopal, S. et al. Nat. Rev. Drug Discov. 9:373-386 2010; Kenakin, T. et al. Pharmacol. Rev. 62:265-304 2010). Statistical analysis: <0.05, vs. SII, n=3 independent experiments.

SMILES: CC[C@H](C)[C@H](NC(=O)[C@@H]1CCCN1C(=O)[C@H](Cc1c[nH]cn1)NC(=O)[C@@H](NC(=O)[C@@H](NC(=O)[C@@H](NC(=O)[C@H](CCCNC(=N)N)NC(=O)CNC)C(C)C)[C@@H](C)CC)[C@@H](C)CC)C(=O)O [SII, Sar^1,Ile^4,Ile^8-AngII]
- EC50 (AT1R [1]): 11.2 nM

SMILES: CCCCC1=NC2(CCCC2)C(=O)N1Cc1ccc(-c2ccccc2-c2nnn[nH]2)cc1 [IRB, Irbesartan]
- plasma aldosterone levels vs. Saline [2]: unable to counter the adrenal βarr1-mediated hyperaldosteronism
- ejection fraction (EF %) vs. Saline, in words [3]: further worsened cardiac function
- cardiac ejection fraction (EF) [3]: 32±1%
- myocardial systolic function in response to maximal dose of Isoproterenol (Max. Iso) [4]: severely impaired myocardial systolic function
- relative potency for inhibition of SII-induced activation of βarr2 by human AT1R (AT1R [5]): the least potent βarr inhibitors
- ratio of IC50 for AT1R-βarr antagonism to IC50 for G-protein antagonism (AT1R [6]): 1.05

SMILES: COC(=O)[C@@H]1CC2=CC(=O)CC[C@]2(C)[C@@]23O[C@@H]2C[C@@]2(C)[C@@H](CC[C@@]24CCC(=O)O4)[C@H]13 [eplerenone]
- effect on plasma aldosterone increase caused by Adβarr1 treatment (post-MI rats [7]; Adβarr1 post-MI rats, 100 mg/kg/day eplerenone for 7 days): no effect
- EF reduction and LVEDD increase induced by adrenal βarr1 overexpression (post-MI rats [8]; eplerenone 100 mg/kg/d for 7 days): prevented
- effects of adrenal βarr1 overexpression (EF, LVEDD) (post-MI rats [8]; eplerenone low dose 5 mg/kg/d, data not shown): prevented
- cardiac fibrosis in Adβarr1-adrenal treated rat hearts under drug treatment (post-MI rat hearts): markedly reduced fibrosis

SMILES: CCSC[C@H](NC(=O)[C@H](Cc1ccc(O)cc1)NC(=O)[C@@H](NC(=O)[C@H](CCCNC(=N)N)NC(=O)CNC)C(C)C)C(=O)N[C@@H](Cc1c[nH]cn1)C(=O)N1CCC[C@H]1C(=O)N[C@@H](CC(C)C)C(=O)O [CORET, Sar^1,Cys(Et)^5,Leu^8-AngII] (H-[Sar]RVYC(Et)HPL-OH; N-terminus and C-terminus assumed)
- EC50 (AT1R [1]): 1 nM
- times less potent than AngII for βarr activation by the AT1R (AT1R [1]; ratio of EC50s): 10 times
- SII-induced aldosterone secretion (H295R cells): can enhance; also recorded: far greater aldosterone secretion in vitro than SII
- plasma aldosterone levels vs. Saline [2]: an increase; also recorded: significantly worsens hyperaldosteronism
- ejection fraction (EF %) vs. Saline, in words [3]: further worsened cardiac function
- myocardial systolic function in response to maximal dose of Isoproterenol (Max. Iso) [4]: severely impaired myocardial systolic function

SMILES: CCOc1nc2cccc(C(=O)O)c2n1Cc1ccc(-c2ccccc2-c2nnn[nH]2)cc1 [CAN, Candesartan]
- cardiac ejection fraction (EF) [3]: 41.1±1%

SMILES: CCCCC(=O)N(Cc1ccc(-c2ccccc2-c2nnn[nH]2)cc1)[C@H](C(=O)O)C(C)C [VAL, Valsartan]
- SII-induced aldosterone secretion (H295R cells): can inhibit
- plasma aldosterone levels vs. Saline [2]: profound decreases
- plasma aldosterone levels vs. Saline ([2]; listed as valsartan): significant plasma aldosterone reductions
- ejection fraction (EF %) vs. Saline, in words [3]: significantly improved
- cardiac ejection fraction (EF) [3]: 40±1%
- myocardial systolic function in response to maximal dose of Isoproterenol (Max. Iso) [4]: significantly improves it

SMILES: CCCCc1nc(Cl)c(CO)n1Cc1ccc(-c2ccccc2-c2nn[nH]n2)cc1 [LOS, Losartan]
- plasma aldosterone reduction by losartan in Adβarr1ct-treated post-MI rats (post-MI rats [7]; losartan 50 mg/kg/day for 7 days post-gene delivery): no significant aldosterone reduction
- plasma aldosterone, losartan-treated control AdGFP post-MI rats (post-MI rats [7]; losartan 50 mg/kg/day for 7 days post-gene delivery, saline-treated 470±20): 402 ± 10 pg/mL
- plasma aldosterone, losartan-treated Adβarr1 post-MI rats (post-MI rats [7]; losartan 50 mg/kg/day for 7 days post-gene delivery, saline-treated 845±150, not significant): 880 ± 88 pg/mL
- cardiac fibrosis in Adβarr1-adrenal treated rat hearts under drug treatment (post-MI rat hearts): incapable of reducing the cardiac fibrosis

— patent publication US10172907B2, “Compositions comprising β-arrestin 1 and methods of use thereof for therapeutic modulation of aldosterone levels in heart disease” (NOVA SOUTHEASTERN UNIVERSITY, priority 2010, dated 2019)
